US20140142140A1, “PHARMACEUTICAL COMPOSITION FOR NEUROLOGICAL DISORDERS” (priority 2011, published 2014)
Counter-ions that a name gives are not always drawn. Like-named read-outs stand apart in the source and are kept apart here.

Legend:
[1] = system: mood stabilisation or epileptic symptoms or events; conditions: cited from earlier work
[2] = system: patients with autism / ASD / communication disorder; assay: Case reports, Autism and other Pervasive Development Disorders (Example 6); type: in vivo, human
Text: Patient 6A: Adult, diagnosed in childhood with autism and ADHD. A long history of behavioural disturbance with frequent episodes of violence despite treatment with high-dose antipsychotic medication. […] The high-dose antipsychotic medication has been reduced without any associated loss of recent benefit. […] A history of behavioural disturbance and educational impairment. […] Patient 6C was an adult, diagnosed in childhood with autism and ADHD with a history of behavioural disturbance and educational impairment. […] Patient 6D: Adult, diagnosed in childhood with autism, ADHD and antisocial personality traits. […] Patient C's conversation became more appropriate and consistent together with reported improvements in significant relationships. […] Patient 6E was an adult, diagnosed with communication disorder and major depression. […] Patient 6F was an adult with ASD. […] The patient's conversation became more appropriate and consistent and improvements in significant relationships were reported. A reduction in the reliance on alcohol to alleviate anxiety in social situations was observed. […] Sodium valproate was withdrawn and improvement was noted. […] Patient 6G was as adult, diagnosed in childhood with ASD. […] Sodium valproate was withdrawn. […] This has also been associated with improvements in reading and verbal understanding. These benefits have been sustained in some situations for three years. Although difficult to be objective, there seems to be good evidence of ongoing improvement. […] Improvements in coordination, in fine and gross motor control have been reported and improvement in gait which frequently is a significant issue for individuals with autistic disorders.

[3] = system: patients with Alzheimer's type dementia; assay: Case reports, Mild Cognitive Impairment (MCI) and Dementia (Example 1); type: in vivo, human; conditions: Patient 1B, 7 year history of Alzheimer's type dementia
Text: Patient 1A was an elderly person with history of impairment of cognitive function. Presumptive diagnosis of possible dementia of Alzheimers type.
Patient 1B was an elderly retired person with a 7 year history of Alzheimer's type dementia treated with the cholinesterase inhibitor Donepezil. […] Their cognitive function has gradually deteriorated since this time. […] Their reading was more fluent being better able to follow the meaning of the text. There was also improvement in their Stroop Test particularly in part three, the more cognitively demanding where their accuracy improved from 50 to 90%.

Structure (SMILES) | Minimum typical dose/day effective for mood stabilisation or treatment of epileptic symptoms or events ([1]; per day) | also measured
CCC1(c2ccccc2)C(=O)NC(=O)NC1=O.CNC(C)CC1CCCCC1 [Barbexaclone] | 200 mg in divided doses | 
O=C1NC(c2ccccc2)(c2ccccc2)C(=O)N1COP(=O)(O)O [Fosphenytoin Sodium] | 10 mg/kg | 
CCC1(c2ccccc2)NC(=O)N(C)C1=O (stereo not shown) [Mephenytoin] | 200 mg | 
NS(=O)(=O)Cc1noc2ccccc12 [Zonisamide] | 200 mg | 
CC[C@@H](C(N)=O)N1CCCC1=O [Levetiracetam] | 1000 mg | 
CCC1(c2ccccc2)C(=O)NCNC1=O [Primidone] | 750 mg | 
NC(=O)OCC(COC(N)=O)c1ccccc1 [Felbamate] | 1200 mg | 
CCC1(C)CC(=O)NC1=O (stereo not shown) [Ethosuximide] | 1000 mg | 
Nc1nnc(-c2cccc(Cl)c2Cl)c(N)n1 [Lamotrigine, 3,5-diamino-6-(2,3-dichlorophenyl)-1,2,4-triazine] | 100 mg | 
CC1(C)O[C@@H]2[C@@H](CO[C@@]3(COS(N)(=O)=O)OC(C)(C)O[C@@H]23)O1 [Topiramate, 2,3:4,5-Bis-O-(1-methylethylidene)-beta-D-fructopyranose sulfamate] | 100 mg | 
CCC1(c2ccccc2)NC(=O)N(C)C1=O (stereo not shown) [Methoin] | 1000 mg | 
CCCC(CCC)C(=O)O.[Na] [sodium valproate, sodium di-n-propylacetic acid] |  | behaviour, verbal and non-verbal communication ([2]; Patient 6, ASD, 50 mg daily): significant improvement in behaviour, verbal and non-verbal communication; reintroduction at lower dose ([2]; Patient 6, 25 mg daily): successfully reintroduced; adverse effects within three days ([2]; Patient 6, 50 mg daily): increasing cognitive slowing, general malaise and tiredness; communication ([2]; Patient 6E, communication disorder and major depression, 50 mg): significant improvement in communication; communication ([2]; Patient 6E, 25 mg daily): sustained improvement in the ability to communicate with less effort; benefits when medication ceased ([2]; Patient 6E, medication ceased): initial benefits were lost; communication, eye contact, motor tics, social engagement ([2]; Patient 6G, 25 mg on alternate days): sustained improvement in the communication, eye contact during dialogue, reduction in motor tics and greater social engagement and independently motivated activity; communication and other symptoms of ASD ([2]; Patient 6G, 50 mg daily): improvement in communication and other symptoms of ASD; side-effects ([2]; Patient 6G, 50 mg daily): low mood and irritability
CN1C(=O)CC(=O)N(c2ccccc2)c2cc(Cl)ccc21 [Clobazam] |  | Minimum typical dose/day effective for mood stabilisation or treatment of epileptic symptoms or events ([1]; in vivo): 5 mg/kg daily
COC1=CC(=O)OC1C(O)c1ccccc1Cl (stereo not shown) [Losigamone] | 1500 mg | 
CCC1(c2ccc(N)cc2)CCC(=O)NC1=O (stereo not shown) [Aminoglutethimide] | 125 mg | 
C=CC(N)CCC(=O)O (stereo not shown) [Vigabatrin] | 1000 mg | 
CCC1(C)OC(=O)N(C)C1=O (stereo not shown) [Paramethadione] | 300 mg | 
COC[C@@H](NC(C)=O)C(=O)NCc1ccccc1 [Lacosamide] | 200 mg | 

Structure (SMILES) | Minimum typical dose/day effective for mood stabilisation or treatment of epileptic symptoms or events ([1]; per day) | also measured
COc1cc2c(cc1OC)C(=O)C(CC1CCN(Cc3ccccc3)CC1)C2 (stereo not shown) [Donepezil] |  | subjective cognitive functioning and ADAS-cog [3]: significant improvement in their subjective cognitive functioning
CN1C(=O)CC(C)(c2ccccc2)C1=O (stereo not shown) [Methsuximide] | 300 mg | 
CN1C(=O)OC(C)(C)C1=O [Trimethadione] | 900 mg | 
NC(=O)N1c2ccccc2C=Cc2ccccc21 [Carbamazepine] | 400 mg | 
CCN1C(=O)NC(c2ccccc2)C1=O (stereo not shown) [Ethotoin] | 1000 mg | 
Cc1ccsc1C(=CCCN1CCC[C@@H](C(=O)O)C1)c1sccc1C [Tiagabine Hydrochloride] | 30 mg | 
NS(=O)(=O)c1ccc(N2CCCCS2(=O)=O)cc1 [Sultiame] | 200 mg | 
NCC1(CC(=O)O)CCCCC1 [Gabapentin, 2-[1-(aminomethyl)cyclohexyl]acetic acid] | 900 mg | 
CCC(C(=O)NC(N)=O)c1ccccc1 (stereo not shown) [Pheneturide] | 600 mg | 
CCC[C@@H]1CC(=O)N([C@@H](CC)C(N)=O)C1 [Brivaracetam] | 100 mg | 
CC(C)C[C@H](CN)CC(=O)O [Pregabalin, (S)-3-(aminomethyl)-5-methylhexanoic acid] | 300 mg | 
NC(=O)NC(=O)Cc1ccccc1 [Phenacemide] | 500 mg | 
NC(=O)N1c2ccccc2CC(=O)c2ccccc21 [Oxcarbazepine] | 600 mg | 
CCN1C(=O)OC(C)(C)C1=O [Ethadione] | 1000 mg | 
CN1C(=O)CC(c2ccccc2)C1=O (stereo not shown) [Phensuximide] | 1000 mg | 
O=C1CN=C(c2ccccc2Cl)c2cc([N+](=O)[O-])ccc2N1 [Clonazepam] | 1 mg | 
N#Cc1ccccc1-c1cc(-c2ccccn2)cn(-c2ccccc2)c1=O [Perampanel] | 2 mg | 
